The source of these data is publication PMC5567169 (Emerging Microbes & Infections, 2017).

Experiment [1] concerns the target T1, FtlA (Francisella tularensis, UniProt A0AAI8BGE8).
T1 construct: gene FTL_0430

Experiment [2] has as its target T1, FtlA. The source holds these as a separate data set.

T1 sequence (A0AAI8BGE8 1-293): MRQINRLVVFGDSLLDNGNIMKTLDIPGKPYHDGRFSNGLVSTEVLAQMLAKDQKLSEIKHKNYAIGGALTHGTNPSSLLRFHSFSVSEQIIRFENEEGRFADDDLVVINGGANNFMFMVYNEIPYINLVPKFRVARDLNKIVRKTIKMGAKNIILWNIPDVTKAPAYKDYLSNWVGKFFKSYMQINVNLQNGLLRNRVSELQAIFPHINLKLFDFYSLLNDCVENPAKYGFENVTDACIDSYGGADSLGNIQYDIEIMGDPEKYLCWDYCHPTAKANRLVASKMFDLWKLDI

Regarding `CCCC(=O)Oc1ccc([N+](=O)[O-])cc1` [p-nitrophenyl butyrate (C4)], in experiment [1], the “p-nitrophenyl ester hydrolysis by purified OMVs” value is recorded as “OMVs of the wild-type LVS hydrolyzed p-nitrophenyl butyrate (C4) efficiently”.
Turning to `CCCC(=O)OCC(COC(=O)CCC)OC(=O)CCC` [tributyrin], the “halo (clear zone) assay on agar plates” value in experiment [2] is reported as “E. coli strain harboring the FtlA-expressing plasmid (pST2000) showed a clear zone of halo”.
